The values below come from PubChem BioAssay (NCI).

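Cultured in 96-well plates, cells were exposed to test compound for 48 hours across five concentrations. GI50 marks 50% less growth. TGI is the concentration that stops growth completely.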

The test system of the first test is NCI-H226 lung. Briefly: NCI anticancer screen, dose series, 48 h.
As for `CCCC(C)c1cc(Cc2cc(Cl)cc(Cl)c2O)c(O)c(Cc2cc(Cl)cc(Cl)c2O)c1` (stereo unspecified), the GI50 is 1.94 µM and the TGI was determined as 6.61 µM.

For `C/C(=N\NS(=O)(=O)c1ccccc1)c1ccc(Cl)c(Cl)c1`, the TGI is greater than 100 µM.

Take `COc1ccc(/C=C2\CCCC3=C2N=C2SC(C)=NN2C3c2ccc(OC)c(OC)c2)cc1OC` (stereo unspecified): the GI50 is 13.3 µM and the TGI was determined as 79.4 µM.

`COc1ccc(-c2nn3c(-c4cc(F)c(Cl)cc4Cl)nnc3s2)cc1`: the GI50 was 47.9 µM and the TGI was greater than 100 µM.

`CCCNC1=C(C(=O)OCC)C(=O)CO1` gave a TGI greater than 100 µM.

As for `O=C(NCCO)Nc1ccc(-c2nc(N3CCOCC3)c3cccn3n2)cc1`, the GI50 was 0.13 µM and the TGI came to 6.33 µM.

For the molecule `Cc1ccc(-c2cn3ccnc3c(-c3ccc(Cl)cc3)n2)cc1`, the GI50 was 10.3 µM and the TGI was greater than 100 µM.

Take `CC1(C)C(=NNC(=O)C[N+](C)(C)C)C(C)(C)C1=NNC(=O)C[N+](C)(C)C`: the TGI was greater than 100 µM.

In turn, `Nn1c(NNC(=O)C(=O)Nc2cc(Cl)c(Cl)cc2Cl)n[nH]c1=S` registered a TGI greater than 100 µM.

As for `COc1ccc2sc3c(NCCCN(C)C)nc4ccccc4c3c(=O)c2c1`, the GI50 was 1.67 µM and the TGI worked out at 3.34 µM.

Turning to `NC1C[C@H](n2cc(/C=C/Br)c(=O)[nH]c2=O)C[C@@H]1CO` (stereo partly specified), the TGI was greater than 100 µM.

In turn, `O=c1/c(=C/c2ccccc2F)sc2nc3ccccc3n12` yielded a TGI greater than 100 µM.

`CC1=C(C)C(=O)c2c(cc3ccccn23)C1=O` returned a TGI of 58.5 µM.

Consider `Cc1ccc(N=Cc2ccc3c(c2)OCO3)cc1C`, for which the TGI is greater than 100 µM.

Regarding `O=C1/C(=C\c2c[nH]c3ccccc23)c2ccccc2N1c1c(Cl)cccc1Cl`, the GI50 is 1.7 µM and the TGI came out at 3.65 µM.

As to `OC(c1cc(-c2ccccc2)nc2ccc(Cl)cc12)C1CCCCN1` (stereo unspecified), the GI50 is 2.19 µM and the TGI amounted to 4.64 µM.

Take `CC(CCC(=O)O)[C@H]1CCC2[C@@H]3CC[C@@H]4CC(O)CC[C@]4(C)C3CC[C@@]21C` (stereo partly specified): the GI50 was 63.5 µM and the TGI was greater than 100 µM.

Take `Nc1ccn(CCNCCn2cnc3nc(N)[nH]c(=O)c32)c(=O)n1`: the TGI was greater than 100 µM.

A further test has as its system HOP-62 NSCLC. Put plainly: NCI anticancer screen, dose series, 48 h.
For the molecule `CCCC(C)c1cc(Cc2cc(Cl)cc(Cl)c2O)c(O)c(Cc2cc(Cl)cc(Cl)c2O)c1` (stereo unspecified), the GI50 was 2.7 µM and the TGI amounted to 12 µM.

In turn, `C/C(=N\NS(=O)(=O)c1ccccc1)c1ccc(Cl)c(Cl)c1` returned a TGI greater than 100 µM.

Turning to `COc1ccc(/C=C2\CCCC3=C2N=C2SC(C)=NN2C3c2ccc(OC)c(OC)c2)cc1OC` (stereo unspecified), the GI50 is 19.8 µM and the TGI is greater than 100 µM.

For the molecule `COc1ccc(-c2nn3c(-c4cc(F)c(Cl)cc4Cl)nnc3s2)cc1`, the GI50 is 26.2 µM and the TGI is greater than 100 µM.

As for `O=C(NCCO)Nc1ccc(-c2nc(N3CCOCC3)c3cccn3n2)cc1`, the GI50 is 0.122 µM and the TGI came out at 3.85 µM.

Take `Cc1ccc(-c2cn3ccnc3c(-c3ccc(Cl)cc3)n2)cc1`: the GI50 was 3.69 µM and the TGI is greater than 68.6 µM.

In turn, `CC1(C)C(=NNC(=O)C[N+](C)(C)C)C(C)(C)C1=NNC(=O)C[N+](C)(C)C` came in with a TGI greater than 100 µM.

Consider `Nn1c(NNC(=O)C(=O)Nc2cc(Cl)c(Cl)cc2Cl)n[nH]c1=S`, for which the TGI is greater than 100 µM.

For `COc1ccc2sc3c(NCCCN(C)C)nc4ccccc4c3c(=O)c2c1`, the GI50 was 1.6 µM and the TGI came to 3.2 µM.

For `NC1C[C@H](n2cc(/C=C/Br)c(=O)[nH]c2=O)C[C@@H]1CO` (stereo partly specified), the TGI was greater than 100 µM.

`COC(C(=O)[O][Ge]([CH3])([CH3])[CH3])c1ccccc1` (stereo unspecified): the GI50 is greater than 100 µM and the TGI is greater than 100 µM.

As for `O=C1/C(=C\c2c[nH]c3ccccc23)c2ccccc2N1c1c(Cl)cccc1Cl`, the GI50 is 1.38 µM and the TGI was 2.75 µM.

As to `CCN(CC)c1ccc(C(=O)c2ccccc2C(=O)O)c(O)c1`, the TGI is greater than 100 µM.

Consider `COc1ccc(OC)c(NC(=O)C2=C(C)NC(C)=C(C(=O)Nc3cc(OC)ccc3OC)C2c2ccccc2)c1`, for which the TGI was greater than 100 µM.

In the case of `CC(CCC(=O)O)[C@H]1CCC2[C@@H]3CC[C@@H]4CC(O)CC[C@]4(C)C3CC[C@@]21C` (stereo partly specified), the GI50 was 37.2 µM and the TGI is greater than 100 µM.

`Nc1ccn(CCNCCn2cnc3nc(N)[nH]c(=O)c32)c(=O)n1`: the TGI is greater than 100 µM.

In a further test the test system is A498 renal. Briefly: NCI anticancer screen, dose series, 48 h.
Consider `CCCC(C)c1cc(Cc2cc(Cl)cc(Cl)c2O)c(O)c(Cc2cc(Cl)cc(Cl)c2O)c1` (stereo unspecified), for which the GI50 is 0.243 µM and the TGI was determined as 2 µM.

As to `C/C(=N\NS(=O)(=O)c1ccccc1)c1ccc(Cl)c(Cl)c1`, the TGI was greater than 100 µM.

Consider `COc1ccc(/C=C2\CCCC3=C2N=C2SC(C)=NN2C3c2ccc(OC)c(OC)c2)cc1OC` (stereo unspecified), for which the GI50 is 2 µM and the TGI stood at 86.3 µM.

Regarding `COc1ccc(-c2nn3c(-c4cc(F)c(Cl)cc4Cl)nnc3s2)cc1`, the GI50 was 43.4 µM and the TGI is greater than 100 µM.

In turn, `CCCNC1=C(C(=O)OCC)C(=O)CO1` yielded a TGI greater than 100 µM.

`O=C(NCCO)Nc1ccc(-c2nc(N3CCOCC3)c3cccn3n2)cc1`: the GI50 is less than 0.0373 µM and the TGI came to 0.125 µM.

In the case of `Cc1ccc(-c2cn3ccnc3c(-c3ccc(Cl)cc3)n2)cc1`, the GI50 is 0.389 µM and the TGI came out at 8.11 µM.

For `CC1(C)C(=NNC(=O)C[N+](C)(C)C)C(C)(C)C1=NNC(=O)C[N+](C)(C)C`, the TGI was greater than 100 µM.

For the molecule `Nn1c(NNC(=O)C(=O)Nc2cc(Cl)c(Cl)cc2Cl)n[nH]c1=S`, the TGI is greater than 100 µM.

Consider `COc1ccc2sc3c(NCCCN(C)C)nc4ccccc4c3c(=O)c2c1`, for which the GI50 is 1.38 µM and the TGI amounted to 2.78 µM.

On to `NC1C[C@H](n2cc(/C=C/Br)c(=O)[nH]c2=O)C[C@@H]1CO` (stereo partly specified), for which the TGI was greater than 100 µM.

In turn, `O=c1/c(=C/c2ccccc2F)sc2nc3ccccc3n12` returned a TGI greater than 100 µM.

The molecule `CC1=C(C)C(=O)c2c(cc3ccccn23)C1=O` gave a TGI of 46.1 µM.
